According to patent publication US9339477B2, “Antimicrobial composition” (Rohm and Haas Company, priority 2011, dated 2016):

Key:
Type in all cases: cell-based
[1] = test system: Escherichia coli (E. coli—ATCC #10536); experiment: High resolution MBC synergy assay, microtiter plate, phosphate buffer containing 35% dipropylene glycol (Example 2); details: for ΣFBC: for the Ca/Cb pair of the same table line; for MBC of component alone (MBCA, MBCB): complete kill in 15 seconds, 35% DPG phosphate buffer
Protocol: The materials were sourced in the same way as for Example 1. Synergy tests were conducted using standard microtiter plate assays with phosphate buffer containing 35% dipropylene glycol (DPG). […] The MBC plate was inoculated one column at a time with the test microorganism. An aliquot of the inoculated well was transferred at 15 seconds to a plate containing a neutralizing agent (D/E Neutralizing Broth), mixed and held for 5 minutes before being transferred to a growth plate containing trypticase soy broth (TSB). The TSB plate was incubated at 37° C. and read for the presence/absence of growth at 24 hours. […] This microorganism is representative of natural contaminants in many consumer and industrial applications.

[2] = test system: Escherichia coli (E. coli—ATCC #10536); experiment: Automated assessment of efficacy in surfactant base, DeltaOD in D/E quench (Example 4); details: for MBC: in 2.85% sodium cocoyl glycinate + 1.85% sodium lauroamphoacetate solution at pH 10; for 15 second bactericidal efficacy in combination with thymol: in combination with thymol at concentrations lower than their MBC, same surfactant formulation, all 4 or 3 replicates, respectively
Protocol: In these examples, the efficacy of combinations of thymol and propen-2-yl-methyl-cyclohexanols of the invention were tested in a surfactant cleansing formulation comprising 2.85% sodium cocoyl glycinate and 1.85% sodium lauroamphoacetate. This corresponds to a 50% in use dilution with water of a typical neat formulation containing 5.7% cocoyl glycinate and 3.7% % sodium lauroamphoacetate during hand washing. Solutions were prepared such that the concentrations of the surfactant components and test actives were 1.1 times the final desired concentration in order to allow for dilution with the bacterial inoculum in the test. The solutions were manually adjusted to pH 10.0 by dropwise addition of sodium hydroxide solution, as measured with a pH meter at ambient temperature. Solutions of the thymol and/or propen-2-yl-methyl-cyclohexanols of the invention were prepared at a maximum of 24 hours before testing. The same thymol and propen-2-yl-methyl-cyclohexanols were tested as in Example 1.
The efficacy of the combinations of the present invention was determined against the same bacterium as in Example 1, Escherichia coli (E. coli—ATCC #10536), at a concentration of approximately 1×10^8 bacteria per mL.
Tests were conducted using standard microtiter plate assays using an automated liquid handling system. 270 μl of the surfactant test solution was pipetted into each well of the microtitre plate (Nunc F Gamma Irradiated 96F untreated microtitre plates of clear polystyrene) and 30 μl of the bacterial suspension was then added. After exactly 15 seconds of bacterial exposure, a 30 μl volume of bacterial cells was withdrawn and transferred to 270 μl of D/E quench solution. After 5 minutes in the D/E quench, the optical density (OD) was measured for each plate in turn at two specific wavelengths (450 nm and 590 nm). These provide a dual check of antimicrobial activity, as the OD450 reading is specific for the yellow colour of D/E quench when bacterial growth is observed, whereas OD590 is specific for the initial purple colour of the D/E quench which is retained if no bacterial growth is observed. […] Delta OD values were calculated by subtracting […] at time=16 hours. […] To identify antibacterially efficacious systems (those preventing appreciable bacterial growth after incubation), the following threshold changes in OD readings have been adopted: if (1). OD450 increases by less than 0.2 absorbance unit (AU) on incubation and (2). […] The number of replicate wells showing either bacterial growth or no growth is also readily assessed by eye by following the colour change. […]
In each case, binary mixtures were assessed in the weight to weight ratio of thymol to propen-2-yl-methyl-cyclohexanols of 1:2.5.

[3] = test system: Escherichia coli (10536 strain); experiment: Antimicrobial efficacy, 15 seconds contact suspension test with plate count (Examples 1 and 3); details: for MBC (minimum biocidal concentration): Example 1 medium, lowest concentration giving complete kill after 15 seconds, upper boundary
Protocol: The efficacies of antimicrobial agents can be usefully compared by determining the Minimum Biocidal Concentration (MBC). The MBC is defined as the lowest absolute concentration of the particular active that provides complete kill (zero bacterial growth).
Antimicrobial efficacy is tested against a representative pathogenic bacterial organism, Gram negative Escherichia coli. Concentrations of actives are expressed in terms of the percentage weight/volume (% w/v) throughout Example 1.
An overnight culture of Escherichia coli (10536 strain) was prepared in 50 ml total volume of TSB broth, grown for ca. 18 hrs at 37° C. and shaken at 150 rpm. 1 ml of this overnight E. coli culture was transferred to 50 ml of fresh TSB broth and incubated at 37° C. at 150 rpm for ca. 4 hours. This culture was separated into equal volumes and centrifuged at 4000 rpm for 15 minutes, washed with sterile saline (0.85% NaCl), centrifuged once more and re-suspended in saline to give a final concentration of 0.8 OD620 equivalent to about 10^8 cells per milliliter for this particular organism. Here, OD620 indicates the absorbance of a sample in a cuvette of 1.0 cm path length at a wavelength of 620 nm. This bacterial stock was used for assaying against antimicrobial actives (in triplicate).
The following assay describes the testing of 8 materials using 6 dilutions across half of a 96-well micro titre plate (MTP). Using this approach it is possible to assay 16 actives (without replicates) with one full dilution plate, replicating this set up in two halves of the plate columns, 1-6 and 7-12.
1M solutions of the test actives were prepared in dimethylsulphoxide (DMSO).
Aliquots (270 μl) of the materials at 1.11 times the final concentration were dispensed into the wells of the MTP along one column (A1-H1). This MTP was labelled as the “Screening plate”.
In another MTP, labelled as the “Dilution plate”, 270 μl of D/E neutralising solution from DIFCO Composition was added to column 1. The composition of the neutralising solution was as follows: pancreatic digest of casein, 5.0 g/L; Yeast Extract, 2.5 g/L; Dextrose, 10 g/L, sodium thioglycollate, 1.0 g/L, sodium thiosulphate, 6.0 g/L; sodium bisulphite, 2.5 g/L; Polysorbate 80, 5.0 g/L; lecithin 7.0 g/L; bromocresol purple, 0.02 g/L with a pH in the range 7.6±0.2.
270 μl of tryptone diluent solution was added to all the remaining wells of the Dilution MTP (columns 2-6). […]

Structure (SMILES): C=C(C)C1CCC(C)C(O)C1 (stereo not drawn) [2-methyl-5-(propen-2-yl)-cyclohexanol]
- ΣFBC ([1]; Table 7): 1.00
- MBC of component alone (MBCA, MBCB) ([1]; Table 7 series): 0.5 weight %
- MBC [2]: >0.5 % w/v
- 15 second bactericidal efficacy in combination with thymol [2]: complete kill
- MBC (minimum biocidal concentration) [3]: 0.3 % w/v

Structure (SMILES): C=C(C)[C@@H]1CC[C@@H](C)C[C@H]1O [5-methyl-2-(propen-2-yl)-cyclohexanol, (1R,2S,5R)-5-methyl-2-(propen-2-yl)-cyclohexanol]
- ΣFBC ([1]; Table 8): 1.00
- MBC of component alone (MBCA, MBCB) ([1]; Table 8 series): 0.5 weight %
- MBC [2]: >0.5 % w/v
- 15 second bactericidal efficacy in combination with thymol [2]: complete kill
- MBC (minimum biocidal concentration) [3]: 0.3 % w/v

Structure (SMILES): C=C(C)[C@@H]1CC[C@@H](C)[C@@H](O)C1 [(1S,2R,5R)-2-methyl-5-(1-methylethenyl)-cyclohexanol]
- MBC ([3]; Example 3, protocol of Example 1): 0.3 % w/v

Structure (SMILES): Cc1ccc(C(C)C)c(O)c1 [thymol, 2-isopropyl-5-methylphenol, reference compound]
- ΣFBC ([1]; Table 7): 1.00
- MBC of component alone (MBCA, MBCB) ([1]; Table 7 series): 0.2 weight %
- ΣFBC ([1]; Table 8): 1.00
- reduction of thymol concentration required for complete kill ([3]; combination with […] w/v 2-methyl-5-(propen-2-yl)-cyclohexanol versus thymol in isolation): 4 fold
